For one assay, the target named is BRD4-BD1 (Homo sapiens (Human), UniProt O60885). The experiment in a line: BRD4 AlphaScreen Assay (Example A2), BRD4-BD1. Type of assay: binding. Here is the method: (§1) BRD4-BD1 and BRD4-BD2 assays were conducted in white 384-well polystyrene plate in a final volume of 40 μL for BD1 and 60 μL for BD2. Inhibitors were first serially diluted in DMSO and added to the plate wells before the addition of other reaction components. […] The assays were carried out at room temperature in the assay buffer (50 mM Tris-HCl, pH 7.5, 0.01% Tween-20, 0.01% BSA, 5 mM DTT), containing 50 nM Biotin-labeled tetra-acetylated histone H4 peptide (H4Ac4) and BRD4-BD1 or BRD4-BD2 protein at concentration less than 1 nM. […] After plate sealing, the plate was incubated in the dark at room temperature for 75 min. before reading on a PHERAstar FS plate reader (BMG Labtech). IC50 determination was performed by fitting the curve of percent control activity versus the log of the inhibitor concentration using the GraphPad Prism 5.0 software.

For another assay, the target named is BRD4-BD2 (Homo sapiens (Human), UniProt O60885). The experiment in a line: BRD4 AlphaScreen Assay (Example A2), BRD4-BD2. Type of assay: binding. How it is done: as §1
Background: In Alpha technology, singlet oxygen from a donor bead excites a nearby acceptor bead.

[1] abbreviates: Assay A2, AlphaScreen, BRD4-BD1, read-out: BRD4 BD-1 enzyme IC50.
[2] abbreviates: Assay A2, AlphaScreen, BRD4-BD2, read-out: BRD4 BD-2 enzyme IC50.
Setting [3] is: read-out: BRD4 BD-2 enzyme IC50.

Structures can show the parent of a compound that is named as a salt. Where two headings read alike, the source gives them in different places.

A word on the IC50: it is the concentration at which inhibition is half-maximal. Take `Cc1noc(C)c1-c1ccc2[nH]c(=O)n3c2c1OCC3c1cncc(F)c1` (stereo not shown) [Example 78, 7-(3,5-dimethylisoxazol-4-yl)-4-(5-fluoropyridin-3-yl)-4,5-dihydroimidazo[1,5,4-de][1,4]benzoxazin-2(1H)-one]: the IC50 at BRD4-BD1 (setting [1]) and at BRD4-BD2 (setting [2]) was under 100 nM in each case.
Regarding `Cc1noc(C)c1-c1cc(-c2ccnc(O)c2)c2[nH]c(=O)n3c2c1OC[C@@H]3c1ccccn1` [Example 260, (4S)-7-(3,5-dimethylisoxazol-4-yl)-9-(2-hydroxypyridin-4-yl)-4-pyridin-2-yl-4,5-dihydroimidazo[1,5,4-de][1,4]benzoxazin-2(1H)-one], the IC50 is 100 to 1000 nM on BRD4-BD1 (setting [1]) and under 100 nM at BRD4-BD2 (setting [2]).
As for `Cc1noc(C)c1-c1ccc2[nH]c(=O)n3c2c1OCC3c1cccnc1C(N)=O` (stereo not shown) [Example 127, 3-[7-(3,5-Dimethylisoxazol-4-yl)-2-oxo-1,2,4,5-tetrahydroimidazo[1,5,4-de][1,4]benzoxazin-4-yl]pyridine-2-carboxamide trifluoroacetate], the IC50 on BRD4-BD1 (read-out: BRD4 BD-1 enzyme IC50) and on BRD4-BD2 (setting [3]) was under 100 nM throughout.
As to `Cc1noc(C)c1-c1ccc2ncn3c2c1OC[C@@H]3c1ccccn1` [Example 92, (4S)-7-(3,5-Dimethylisoxazol-4-yl)-4-pyridin-2-yl-4,5-dihydroimidazo[1,5,4-de][1,4]benzoxazine], the IC50 at BRD4-BD1 (setting [1]) and at BRD4-BD2 (setting [2]) was under 100 nM throughout.
For the compound `Cc1noc(C)c1-c1cc(C)c2[nH]c(=O)n3c2c1OCC3c1ccccn1` (stereo not shown) [Example 268, 7-(3,5-dimethylisoxazol-4-yl)-9-methyl-4-pyridin-2-yl-4,5-dihydroimidazo[1,5,4-de][1,4]benzoxazin-2(1H)-one], the IC50 at BRD4-BD1 (setting [1]) was in the range of 1000 to 10000 nM; at BRD4-BD2 (setting [2]) it was 100 to 1000 nM.
Consider `Cc1noc(C)c1-c1ccc2nc(C3CCCN(C(=O)C4CC4)C3)n3c2c1OC[C@@H]3c1ccccn1` (mixture of isomers) [Example 118, (4S)-2-[1-(cyclopropylcarbonyl)piperidin-3-yl]-7-(3,5-dimethylisoxazol-4-yl)-4-pyridin-2-yl-4,5-dihydroimidazo[1,5,4-de][1,4]benzoxazine (mixture of diastereomers)], for which the IC50 at BRD4-BD1 (setting [1]) and on BRD4-BD2 (setting [2]) was under 100 nM in each case.
For the compound `Cc1noc(C)c1-c1ccc2[nH]c(=O)n3c2c1OC(C)(C)C3c1ccccn1` (single isomer, unassigned) [Example 61A, 7-(3,5-Dimethylisoxazol-4-yl)-5,5-dimethyl-4-pyridin-2-yl-4,5-dihydroimidazo[1,5,4-de][1,4]benzoxazin-2(1H)-one], the IC50 on BRD4-BD1 (setting [1]) and on BRD4-BD2 (setting [2]) was under 100 nM throughout.
For the compound `C=Cc1nc2ccc(-c3c(C)noc3C)c3c2n1[C@@H](c1ccccn1)CO3` [Example 88, (4S)-7-(3,5-Dimethylisoxazol-4-yl)-4-pyridin-2-yl-2-vinyl-4,5-dihydroimidazo[1,5,4-de][1,4]benzoxazine], the IC50 on BRD4-BD1 (setting [1]) and on BRD4-BD2 (setting [2]) was under 100 nM each time.
With `Cc1noc(C)c1-c1cc(CO)c2[nH]c(=O)n3c2c1OCC3c1ccccn1` (stereo not shown) [Example 254, 7-(3,5-Dimethylisoxazol-4-yl)-9-(hydroxymethyl)-4-pyridin-2-yl-4,5-dihydroimidazo[1,5,4-de][1,4]benzoxazin-2(1H)-one], the IC50 at BRD4-BD1 (setting [1]) and on BRD4-BD2 (setting [2]) was under 100 nM in each case.
As for `Cc1noc(C)c1-c1cc(CNC(=O)CN(C)C)c2[nH]c(=O)n3c2c1OC[C@@H]3c1ccccn1` [Example 143, 2-(Dimethylamino)-N-{[(4S)-7-(3,5-dimethylisoxazol-4-yl)-2-oxo-4-pyridin-2-yl-1,2,4,5-tetrahydroimidazo[1,5,4-de][1,4]benzoxazin-9-yl]methyl}acetamide], the figures for the IC50 on BRD4-BD1 (setting [1]) and on BRD4-BD2 (setting [2]) were 100 to 1000 nM and under 100 nM, respectively.
For `Cc1noc(C)c1-c1ccc2nc(C3CCN(C(=O)C4CC4)C3)n3c2c1OC[C@@H]3c1ccccn1` (single isomer, unassigned; diastereomer 1) [Example 114A] the same measures were under 100 nM and under 100 nM.
As to `CC(=O)N1CCC(c2nc3ccc(-c4c(C)noc4C)c4c3n2[C@@H](c2ccccn2)CO4)CC1` [Example 109, (4S)-2-(1-Acetylpiperidin-4-yl)-7-(3,5-dimethylisoxazol-4-yl)-4-pyridin-2-yl-4,5-dihydroimidazo[1,5,4-de][1,4]benzoxazine], the IC50 on BRD4-BD1 (setting [1]) and on BRD4-BD2 (setting [2]) was under 100 nM throughout.
Consider `Cc1noc(C)c1-c1ccc2[nH]c(=O)n3c2c1OCC3C1CCCCN1S(C)(=O)=O` (stereo not shown) [Example 79, 7-(3,5-dimethylisoxazol-4-yl)-4-[1-(methylsulfonyl)piperidin-2-yl]-4,5-dihydroimidazo[1,5,4-de][1,4]benzoxazin-2(1H)-one], for which the IC50 at BRD4-BD1 and on BRD4-BD2 was 1000 to 10000 nM throughout.
As for `Cc1noc(C)c1-c1ccc2nc(C3=CCNC3)n3c2c1OC[C@@H]3c1ccccn1` [Example 105, (4S)-2-(2,5-dihydro-1H-pyrrol-3-yl)-7-(3,5-dimethylisoxazol-4-yl)-4-pyridin-2-yl-4,5-dihydroimidazo[1,5,4-de][1,4]benzoxazine], the IC50 on BRD4-BD1 (setting [1]) and at BRD4-BD2 (setting [2]) was under 100 nM in each case.
On to `Cc1noc(C)c1-c1cc(F)c2[nH]c(=O)n3c2c1OCC3c1ccccn1` (stereo not shown) [Example 265A, 7-(3,5-dimethylisoxazol-4-yl)-9-fluoro-4-pyridin-2-yl-4,5-dihydroimidazo[1,5,4-de][1,4]benzoxazin-2(1H)-one], for which the IC50 at BRD4-BD1 (setting [1]) and at BRD4-BD2 (setting [2]) was 1000 to 10000 nM throughout.
Take `Cc1noc(C)c1-c1cc(-c2cnn(C)c2)c2[nH]c(=O)n3c2c1OC[C@@H]3c1ccccn1` [Example 81, (4S)-7-(3,5-dimethylisoxazol-4-yl)-9-(1-methyl-1H-pyrazol-4-yl)-4-pyridin-2-yl-4,5-dihydroimidazo[1,5,4-de][1,4]benzoxazin-2(1H)-one 2,2,2-trifluoroacetate]: the IC50 is 100 to 1000 nM on BRD4-BD1 (setting [1]) and under 100 nM on BRD4-BD2 (setting [2]).
Regarding `Cc1noc(C)c1-c1cc(-c2ccc(O)nc2)c2[nH]c(=O)n3c2c1OC[C@@H]3c1ccccn1` [Example 259, (4S)-7-(3,5-dimethylisoxazol-4-yl)-9-(6-hydroxypyridin-3-yl)-4-pyridin-2-yl-4,5-dihydroimidazo[1,5,4-de][1,4]benzoxazin-2(1H)-one], the IC50 at BRD4-BD1 (setting [1]) was 100 to 1000 nM; at BRD4-BD2 (setting [2]), under 100 nM.
Turning to `Cc1noc(C)c1-c1ccc2nc(C3CCNC3)n3c2c1OC[C@@H]3c1ccccn1` (single isomer, unassigned; diastereomer 1) [Example 106A], the IC50 on BRD4-BD1 (setting [1]) and at BRD4-BD2 (setting [2]) was under 100 nM throughout.
Regarding `Cc1noc(CO)c1-c1ccc2[nH]c(=O)n3c2c1OCC3c1ccccn1` (racemic) [Example 124, 7-[5-(Hydroxymethyl)-3-methylisoxazol-4-yl]-4-pyridin-2-yl-4,5-dihydroimidazo[1,5,4-de][1,4]benzoxazin-2(1H)-one], the IC50 at BRD4-BD1 (setting [1]) lay in the range of 1000 to 10000 nM; on BRD4-BD2 (setting [2]), 100 to 1000 nM.
For `Cc1noc(C)c1-c1ccc2nc(C3CCN(C(=O)OC(C)(C)C)C3)n3c2c1OC[C@@H]3c1ccccn1` (single isomer, unassigned; diastereoisomer 1) [Example 101A], the IC50 at BRD4-BD1 (setting [1]) and at BRD4-BD2 (setting [2]) was under 100 nM each time.
`Cc1noc(C)c1-c1ccc2nc(C(=O)N(C)C)n3c2c1OC[C@@H]3c1ccccn1` [Example 91, (4S)-7-(3,5-Dimethylisoxazol-4-yl)-N,N-dimethyl-4-pyridin-2-yl-4,5-dihydroimidazo[1,5,4-de][1,4]benzoxazine-2-carboxamide]: the IC50 on BRD4-BD1 (setting [1]) and at BRD4-BD2 (setting [2]) was under 100 nM throughout.
As to `Cc1noc(C)c1-c1cc(-c2ccc(C(=O)N(C)C)nc2)c2[nH]c(=O)n3c2c1OC[C@@H]3c1ccccn1` [Example 82, 5-[(4S)-7-(3,5-dimethylisoxazol-4-yl)-2-oxo-4-pyridin-2-yl-1,2,4,5-tetrahydroimidazo[1,5,4-de][1,4]benzoxazin-9-yl]-N,N-dimethylpyridine-2-carboxamide 2,2,2-bis(trifluoroacetate)], the IC50 at BRD4-BD1 (setting [1]) was 100 to 1000 nM; at BRD4-BD2 (setting [2]) it was under 100 nM.
On to `CNC(=O)C1(c2ccccn2)COc2c(-c3c(C)noc3C)ccc3[nH]c(=O)n1c23` (stereo not shown) [Example 71, 7-(3,5-Dimethylisoxazol-4-yl)-N-methyl-2-oxo-4-pyridin-2-yl-1,2,4,5-tetrahydroimidazo[1,5,4-de][1,4]benzoxazine-4-carboxamide 2,2,2-trifluoroacetate], for which the IC50 on BRD4-BD1 (setting [1]) is 100 to 1000 nM; at BRD4-BD2 (setting [3]) it was under 100 nM.
As for `Cc1noc(C)c1-c1ccc2nc(C3CCN(C(=O)C4CC4)C3)n3c2c1OC[C@@H]3c1ccccn1` (single isomer, unassigned; diastereomer 2) [Example 114B], the IC50 on BRD4-BD1 (setting [1]) was under 100 nM.
Consider `Cc1noc(C)c1-c1cc(C(C)O)c2[nH]c(=O)n3c2c1OC[C@@H]3c1ccccn1` (single isomer, unassigned) [Example 144B], for which the IC50 is 100 to 1000 nM on BRD4-BD1 (setting [1]) and under 100 nM on BRD4-BD2 (setting [2]).
The matching figures for `CNC(=O)c1nc2ccc(-c3c(C)noc3C)c3c2n1[C@@H](c1ccccn1)CO3` [Example 95, (4S)-7-(3,5-Dimethylisoxazol-4-yl)-N-methyl-4-pyridin-2-yl-4,5-dihydroimidazo[1,5,4-de][1,4]benzoxazine-2-carboxamide]: under 100 nM and under 100 nM.
`Cc1noc(C)c1-c1ccc2nc(N3CCC(NC(=O)C(C)C)CC3)n3c2c1OCC3c1ccccn1` (stereo not shown) [Example 244]: on BRD4-BD2 (setting [2]), the IC50 was under 100 nM.

The values above are taken from US9624241B2 (Incyte Corporation, priority 2013, dated 2017).
